Test results published in ChEMBL document CHEMBL1201862, “PubChem BioAssay data set” (2004).
The source made the active and inactive calls.

Key:
[1] = viability of PTEN-deleted HCT116 cells – cell-based, HCT116 PTEN knockout, dose response (AID 1047); assay type: functional;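 note: HCT116 colon tumor cells with PTEN knocked out; cells exposed to compound for 60 hours before readout; potency for loss of cell viability measured by luminescence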
[2] = microbe, parasite or virus in culture; assay type: functional; conditions: Mycobacterium tuberculosis
[3] = viability of HCT116 lacking mutant beta-catenin – cell-based, human colon tumor, dose response (AID 1045); assay type: functional;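 note: HCT116 colon tumor cells with beta catenin knocked out; cells exposed to compound for 60 hours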
[4] = test system: INS1; test: INS-1E survival protection against cytokine death – cell-based, luminescence, retest, dose response (AID 449756); assay type: functional; conditions: Rattus norvegicus;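 note: cell death triggered by IL-1 beta plus TNF-alpha plus IFN-gamma mixture; protective hits raise ATP signal compared with cytokine alone wells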
[5] = cells; assay type: functional, cell-based
[6] = cells; assay type: functional, cell-based; remark: listed apart in the source
[7] = molecular target: Voltage-dependent T-type calcium channel subunit alpha-1H (Homo sapiens, UniProt O95180); assay type: functional;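 note: channel activity triggered by adding a high calcium stimulation buffer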
[8] = molecular target: T1, Aminopeptidase N (Plasmodium falciparum FcB1/Columbia, UniProt O96935); test: malaria alanyl aminopeptidase activity blockers – biochemical, fluorogenic H-Leu-NHMec substrate, 1536-well (AID 1445); set-up: species or system Plasmodium falciparum 3D7, 3D7
T1 sequence (O96935 whole entry): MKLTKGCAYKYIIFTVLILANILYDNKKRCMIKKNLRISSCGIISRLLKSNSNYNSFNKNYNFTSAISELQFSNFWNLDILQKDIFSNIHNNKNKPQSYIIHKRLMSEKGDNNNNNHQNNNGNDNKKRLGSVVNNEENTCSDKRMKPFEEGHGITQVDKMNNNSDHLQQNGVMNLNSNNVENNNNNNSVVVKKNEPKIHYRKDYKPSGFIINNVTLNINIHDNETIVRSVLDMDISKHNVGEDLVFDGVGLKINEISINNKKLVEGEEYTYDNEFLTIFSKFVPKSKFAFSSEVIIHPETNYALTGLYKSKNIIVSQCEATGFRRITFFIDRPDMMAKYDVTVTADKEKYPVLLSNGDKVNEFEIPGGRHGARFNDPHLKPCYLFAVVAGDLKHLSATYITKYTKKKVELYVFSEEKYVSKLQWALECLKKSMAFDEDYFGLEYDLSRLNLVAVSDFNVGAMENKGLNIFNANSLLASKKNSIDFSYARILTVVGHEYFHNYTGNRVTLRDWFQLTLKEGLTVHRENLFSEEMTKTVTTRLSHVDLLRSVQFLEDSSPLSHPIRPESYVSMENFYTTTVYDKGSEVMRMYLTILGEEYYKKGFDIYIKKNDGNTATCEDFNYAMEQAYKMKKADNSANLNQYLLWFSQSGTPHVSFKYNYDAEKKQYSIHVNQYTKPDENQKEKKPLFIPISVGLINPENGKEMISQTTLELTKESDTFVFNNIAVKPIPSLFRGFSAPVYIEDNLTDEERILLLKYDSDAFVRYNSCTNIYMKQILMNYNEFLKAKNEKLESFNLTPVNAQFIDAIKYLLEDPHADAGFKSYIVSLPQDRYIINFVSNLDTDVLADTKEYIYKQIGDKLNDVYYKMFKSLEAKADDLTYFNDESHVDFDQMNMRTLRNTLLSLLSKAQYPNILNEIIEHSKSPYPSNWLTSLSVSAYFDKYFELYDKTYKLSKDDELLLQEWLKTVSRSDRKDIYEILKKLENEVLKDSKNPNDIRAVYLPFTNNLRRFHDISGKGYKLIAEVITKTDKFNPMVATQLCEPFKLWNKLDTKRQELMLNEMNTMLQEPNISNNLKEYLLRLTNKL

[9] = molecular target: FAD-linked sulfhydryl oxidase ALR (Homo sapiens, UniProt P55789); test: ALR-catalysed DTT oxidation blockers – biochemical, H2O2 detection, luminescence, cherry-pick, dose response (AID 493248)
[10] = Trypanosoma cruzi growth suppression in host cells – NIH3T3 host cells, beta-gal luminescence, confirmation (AID 2044); assay type: functional, cell-based;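 note: intracellular parasites grown in NIH/3T3 mouse fibroblasts as host cells; luminescent beta-galactosidase reporter signal from transgenic T. cruzi replicating inside host cells; inhibitors lower the luminescence signal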
[11] = NIH3T3 cell viability loss – ATP luminescence, mouse fibroblasts, counter-screen, dose response (AID 2010); assay type: functional, cell-based;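 note: cells exposed to compound for about 90 hours before reading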
[12] = molecular target: T2, Heat shock factor protein 1 (Mus musculus, UniProt P38532); test: enhancement of HSF1-driven luciferase signal – cell-based, NIH3T3, luminescence, dose retest, confirmation (AID 435004); assay type: functional;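 note: stress induced by proteasome inhibitor MG132 added 30 min after compound; luciferase reporter driven by HSF1 response element in NIH3T3 cells; actives raise luminescence as potentiators of the MG132 stress response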
T2 sequence (P38532 whole entry): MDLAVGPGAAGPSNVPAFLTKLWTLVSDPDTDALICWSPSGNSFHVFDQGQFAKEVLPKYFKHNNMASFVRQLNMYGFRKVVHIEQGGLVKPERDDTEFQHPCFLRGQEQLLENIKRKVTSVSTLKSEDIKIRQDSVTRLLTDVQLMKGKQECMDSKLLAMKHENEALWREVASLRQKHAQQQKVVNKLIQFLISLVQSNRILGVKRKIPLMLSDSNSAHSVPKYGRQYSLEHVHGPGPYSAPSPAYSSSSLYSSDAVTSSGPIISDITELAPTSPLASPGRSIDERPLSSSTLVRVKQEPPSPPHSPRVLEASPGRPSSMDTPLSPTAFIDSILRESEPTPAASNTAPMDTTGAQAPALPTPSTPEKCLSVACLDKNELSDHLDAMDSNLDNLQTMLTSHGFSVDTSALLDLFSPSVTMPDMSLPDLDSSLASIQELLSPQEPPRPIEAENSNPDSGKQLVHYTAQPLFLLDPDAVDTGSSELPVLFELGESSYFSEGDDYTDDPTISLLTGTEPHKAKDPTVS

[13] = Luminescence Cell-Based Dose Retest to Confirm Inhibitors of Cancer Stem Cells. [Related pubchem assays (depositor defined):AID2717, AID2721]; assay type: functional, Homo sapiens; conditions: Homo sapiens
[14] = molecular target: T3, Calpain-2 catalytic subunit (Sus scrofa, UniProt P43367); test: m-calpain protease blockers, concentration series – biochemical, fluorogenic peptide substrate, dose response (AID 1420); assay type: functional
T3 sequence (P43367 whole entry): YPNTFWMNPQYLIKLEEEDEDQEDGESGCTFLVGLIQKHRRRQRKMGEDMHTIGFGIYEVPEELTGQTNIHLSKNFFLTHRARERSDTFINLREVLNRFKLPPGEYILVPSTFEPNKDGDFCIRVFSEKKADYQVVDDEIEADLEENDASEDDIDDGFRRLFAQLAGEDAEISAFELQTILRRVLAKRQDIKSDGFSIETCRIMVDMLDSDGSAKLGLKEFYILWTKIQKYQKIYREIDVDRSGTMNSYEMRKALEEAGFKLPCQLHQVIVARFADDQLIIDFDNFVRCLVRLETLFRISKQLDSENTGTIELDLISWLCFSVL

[15] = molecular target: Paired box protein Pax-8 (Homo sapiens, UniProt Q06710); test: PAX8 transcriptional activity inhibition in RMG-I – RMG-I cells, luciferase, cherry-pick, dose response (AID 687027); assay type: functional, cell-based;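 note: luciferase reporter driven by Pax8 target thyroperoxidase promoter measured by SteadyGlo luminescence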
[16] = OVCAR8 cell viability loss – plate reader, dry powder samples, PAX8 project, dose response (AID 743197); assay type: functional, cell-based; conditions: OVCAR-8
[17] = OVCAR-3 cell viability loss – plate reader, dry powder samples, PAX8 inhibitor project, dose response (AID 743044); assay type: functional, cell-based
[18] = P. falciparum Dd2 growth inhibitors, dose response, SYBR Green, cherry-picked samples (AID 1159567); assay type: functional, cell-based

Chain of Paired box protein Pax-8 (Q06710 whole entry): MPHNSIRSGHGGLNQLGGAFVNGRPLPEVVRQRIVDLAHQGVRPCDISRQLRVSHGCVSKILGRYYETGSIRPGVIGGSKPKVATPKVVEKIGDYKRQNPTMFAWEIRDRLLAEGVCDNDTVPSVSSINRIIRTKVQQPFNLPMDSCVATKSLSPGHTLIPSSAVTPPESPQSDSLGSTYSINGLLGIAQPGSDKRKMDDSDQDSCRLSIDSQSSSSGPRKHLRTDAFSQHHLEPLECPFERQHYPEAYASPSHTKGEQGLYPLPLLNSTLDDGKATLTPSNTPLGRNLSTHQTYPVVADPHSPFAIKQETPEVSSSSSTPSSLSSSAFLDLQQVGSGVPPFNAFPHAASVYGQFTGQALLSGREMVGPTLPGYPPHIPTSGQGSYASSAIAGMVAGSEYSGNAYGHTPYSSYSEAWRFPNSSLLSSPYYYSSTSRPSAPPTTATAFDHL
Chain of Voltage-dependent T-type calcium channel subunit alpha-1H (O95180 whole entry): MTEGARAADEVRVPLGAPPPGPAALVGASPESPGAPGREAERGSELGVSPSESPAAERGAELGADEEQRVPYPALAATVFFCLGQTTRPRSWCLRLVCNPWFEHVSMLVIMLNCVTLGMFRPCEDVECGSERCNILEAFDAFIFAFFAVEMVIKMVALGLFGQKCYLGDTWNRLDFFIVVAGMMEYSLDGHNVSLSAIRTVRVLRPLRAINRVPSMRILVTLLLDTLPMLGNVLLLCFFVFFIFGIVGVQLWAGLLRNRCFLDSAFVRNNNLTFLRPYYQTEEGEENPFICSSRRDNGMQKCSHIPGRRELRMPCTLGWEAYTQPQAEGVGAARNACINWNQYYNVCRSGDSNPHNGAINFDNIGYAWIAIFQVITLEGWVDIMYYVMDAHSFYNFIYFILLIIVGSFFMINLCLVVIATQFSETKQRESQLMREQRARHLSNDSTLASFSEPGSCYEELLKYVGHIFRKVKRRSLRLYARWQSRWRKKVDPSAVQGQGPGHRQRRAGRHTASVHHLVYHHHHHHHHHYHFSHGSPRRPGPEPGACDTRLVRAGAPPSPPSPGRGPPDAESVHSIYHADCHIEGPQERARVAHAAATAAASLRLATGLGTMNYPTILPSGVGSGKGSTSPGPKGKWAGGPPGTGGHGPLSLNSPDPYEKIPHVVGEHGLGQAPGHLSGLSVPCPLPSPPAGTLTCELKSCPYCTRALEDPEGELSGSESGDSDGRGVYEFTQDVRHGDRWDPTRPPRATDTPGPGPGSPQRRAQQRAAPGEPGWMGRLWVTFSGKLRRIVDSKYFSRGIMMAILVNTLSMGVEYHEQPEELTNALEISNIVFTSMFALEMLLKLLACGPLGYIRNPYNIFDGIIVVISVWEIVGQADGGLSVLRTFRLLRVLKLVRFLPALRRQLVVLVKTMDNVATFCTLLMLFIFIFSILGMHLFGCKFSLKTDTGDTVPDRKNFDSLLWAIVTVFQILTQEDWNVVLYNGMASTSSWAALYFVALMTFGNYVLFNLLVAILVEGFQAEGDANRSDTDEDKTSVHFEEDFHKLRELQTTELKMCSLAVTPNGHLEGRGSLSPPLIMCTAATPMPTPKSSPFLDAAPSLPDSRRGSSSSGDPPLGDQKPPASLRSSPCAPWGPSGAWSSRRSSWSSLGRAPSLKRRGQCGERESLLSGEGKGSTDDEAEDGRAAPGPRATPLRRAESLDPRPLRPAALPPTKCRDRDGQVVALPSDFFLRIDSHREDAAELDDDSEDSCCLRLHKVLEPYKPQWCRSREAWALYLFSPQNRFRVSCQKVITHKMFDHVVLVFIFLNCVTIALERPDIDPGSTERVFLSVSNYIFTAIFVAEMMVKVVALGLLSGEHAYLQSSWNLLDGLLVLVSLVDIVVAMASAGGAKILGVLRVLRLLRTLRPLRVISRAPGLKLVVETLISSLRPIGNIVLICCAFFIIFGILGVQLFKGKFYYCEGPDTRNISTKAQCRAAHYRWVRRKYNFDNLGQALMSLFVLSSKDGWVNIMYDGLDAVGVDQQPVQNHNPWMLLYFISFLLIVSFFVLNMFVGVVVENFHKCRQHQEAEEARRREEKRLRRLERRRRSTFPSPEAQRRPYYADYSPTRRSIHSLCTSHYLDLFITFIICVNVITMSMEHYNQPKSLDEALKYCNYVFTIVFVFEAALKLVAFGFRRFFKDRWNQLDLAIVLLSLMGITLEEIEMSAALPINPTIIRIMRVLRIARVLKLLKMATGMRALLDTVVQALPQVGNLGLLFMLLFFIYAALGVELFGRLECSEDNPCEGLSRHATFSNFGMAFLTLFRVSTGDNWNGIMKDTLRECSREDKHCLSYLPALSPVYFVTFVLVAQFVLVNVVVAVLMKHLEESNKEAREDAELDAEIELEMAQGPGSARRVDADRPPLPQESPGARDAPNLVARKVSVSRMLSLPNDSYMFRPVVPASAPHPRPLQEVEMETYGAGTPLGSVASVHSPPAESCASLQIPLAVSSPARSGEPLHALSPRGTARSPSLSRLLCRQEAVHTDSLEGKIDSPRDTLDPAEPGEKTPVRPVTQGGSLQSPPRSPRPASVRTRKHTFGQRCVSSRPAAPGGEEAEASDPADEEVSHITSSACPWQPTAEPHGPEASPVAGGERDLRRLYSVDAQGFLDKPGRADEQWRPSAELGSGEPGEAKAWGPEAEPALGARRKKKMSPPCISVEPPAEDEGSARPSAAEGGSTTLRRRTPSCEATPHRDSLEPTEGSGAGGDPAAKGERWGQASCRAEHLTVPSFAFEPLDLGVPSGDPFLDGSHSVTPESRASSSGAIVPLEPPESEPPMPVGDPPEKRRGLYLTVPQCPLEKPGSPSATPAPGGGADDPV
Chain of FAD-linked sulfhydryl oxidase ALR (P55789 whole entry): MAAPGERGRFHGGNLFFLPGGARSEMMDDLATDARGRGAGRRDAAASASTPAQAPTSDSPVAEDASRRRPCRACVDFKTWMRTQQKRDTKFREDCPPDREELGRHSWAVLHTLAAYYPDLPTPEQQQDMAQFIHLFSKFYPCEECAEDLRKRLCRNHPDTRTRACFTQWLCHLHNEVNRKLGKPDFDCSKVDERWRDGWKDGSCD

Compound: Cc1nc(Nc2ccc(Cl)c(Cl)c2)sc1C(=O)Nc1ccccc1
- EC50 [1]: 19.8 µM (active)
- CC50 [2]: 27.2 µM (active)
- EC50 [3]: 21.9 µM (active)
- AC50 [4]: 7.01 µM (active)

Compound: CC(=O)c1cccc(N(C(=O)c2ccccn2)C(C(=O)NC2CCCCC2)c2ccccc2)c1 (configuration not stated)
- EC50 [5]: > 350 µM (not active)
- EC50 [6]: > 350 µM (not active)

Compound: O=S(=O)(Nc1nc2ccccc2nc1Nc1ccc2c(c1)OCCO2)c1cccs1
- EC50 [7]: 9.65 µM (active)

Compound: COc1ccc(-c2cn3nc(SCC(=O)NCC4CCCO4)ccc3n2)cc1 (configuration not stated)
- EC50 [5]: 9.41 µM (active)
- EC50 [6]: > 350 µM (not active)

Compound: CNNC(=O)C(C)NC(=O)c1ccc(Br)cc1 (configuration not stated)
- EC50 [5]: > 350 µM (not active)
- EC50 [6]: > 350 µM (not active)

Compound: O=C(NC1CCN(Cc2ccccc2)CC1)c1cccc(S(=O)(=O)Nc2ccc(SC(F)F)cc2)c1
- CC50 [2]: 32.7 µM (active)

Compound: CCCCc1cc(=O)oc2c(CN(CC)CC)c(O)c(Cl)cc12
- IC50 [8]: 41.5 µM (active)

Compound: Cc1ccc(S(=O)(=O)NC2=NC(=O)/C(=C\c3ccco3)S2)cc1
- IC50 [8]: 94 µM (active)

Compound: Cc1ccc(-c2nc(C[S+]([O-])CC(=O)NCc3ccc(Cl)cc3)c(C)o2)cc1 (configuration not stated)
- EC50 [7]: 2 µM (active)

Compound: CN(CC(=O)Nc1ccc(F)c(F)c1F)C(=O)/C=C/c1ccc(Cl)cc1
- EC50 [5]: 155 µM (active)
- EC50 [6]: > 350 µM (not active)

Compound: O=C(O)c1ccc(S(=O)(=O)Nc2ccc(O)c(Sc3nc4ccccc4s3)c2)cc1
- IC50 [8]: 104 µM (active)
- AC50 [9]: 0.236 µM (active)

Compound: CCCOc1ccc(C(=O)c2nc3c(n2O)CCCCC3)cc1
- CC50 [2]: > 40 µM (active)

Compound: Cc1ccc(C)c(CS(=O)(=O)c2cn(CC(=O)N3CCCCC3)c3ccccc23)c1
- IC50 [8]: 94.5 µM (active)

Compound: Cc1nc(NCCc2ccccc2)c2oc3ccccc3c2n1
- CC50 [2]: 31.6 µM (active)

Compound: Cc1nn(Cc2ccc(Cl)cc2Cl)c(C)c1NC(=O)c1ccc(COc2cc(Cl)ccc2Cl)o1
- EC50 [10]: 1.5 µM (active)
- EC50 [7]: 17.5 µM (active)
- EC50 [11]: > 60 µM (not active)

Compound: O=C(NC(=S)Nc1cccc([N+](=O)[O-])c1)c1ccco1
- EC50 [5]: > 350 µM (not active)
- EC50 [6]: > 350 µM (not active)

Compound: Cc1nc(CS(=O)(=O)c2ccc(Cl)cc2)cc(Sc2ccccc2Cl)n1
- EC50 [7]: 4.3 µM (active)

Compound: CC(=O)N1CCN(c2ccc(Oc3ccc([N+](=O)[O-])c(C(F)(F)F)c3)cc2)CC1
- CC50 [2]: > 40 µM (active)
- AC50 [4]: 5.74 µM (active)

Compound: O=C(Nc1ccn(Cc2ccccc2F)n1)c1ccc(COc2ccc(Cl)cc2Cl)o1
- EC50 [7]: 10.3 µM (active)
- EC50 [12]: 20.8 µM (active)
- AC50 [13]: 2.03 µM (active)

Compound: COc1ccc(C(=O)NCCCOC(=O)c2ccc(OC)cc2)cc1
- EC50 [5]: > 350 µM (not active)
- EC50 [6]: > 350 µM (not active)

Compound: O=C(CSc1nc(O)c2c(C(F)(F)F)cc(-c3cccs3)nc2n1)NCc1ccco1
- IC50 [8]: 103 µM (active)

Compound: Cc1ccc(C)c(OCCCC(=O)Nc2nccs2)c1
- EC50 [7]: 3.06 µM (active)
- IC50 [14]: > 50 µM (not active)

Compound: O=C(c1ccc(Cl)cc1Cl)N1CCN(c2ccc(N3CCOCC3)nn2)CC1
- EC50 [5]: > 350 µM (not active)
- EC50 [6]: > 350 µM (not active)

Compound: CCn1c(COc2cccc(C)c2)nc2ccccc21
- EC50 [7]: 13 µM (active)

Compound: O=C(O)c1ccccc1-c1nc(-c2ccccc2)c(-c2ccccc2)[nH]1
- IC50 [8]: 46.6 µM (active)

Compound: O=C(/C=C/c1cccnc1)c1cccc(O)c1
- CC50 [2]: 15.6 µM (active)

Compound: CC(=O)Nc1ccc(S(=O)(=O)Oc2cccc(/C=N/NC3=NC(=O)C(CC(=O)O)S3)c2)cc1 (configuration not stated)
- IC50 [8]: 52.8 µM (active)

Compound: COc1ccc(/C=N/Nc2ncnc3sc4c(c23)CCCC4)cc1OC
- EC50 [5]: > 350 µM (not active)
- EC50 [6]: > 350 µM (not active)

Compound: C[C@@H]1CCCCO[C@@H](CN(C)Cc2ccc(Cl)c(Cl)c2)[C@H](C)CN([C@H](C)CO)C(=O)c2cc(NS(=O)(=O)c3ccc(F)cc3)ccc2O1
- AC50 [15]: 8.2 µM (active)
- AC50 [16]: > 70 µM (inactive)

Compound: C[C@@H]1CN([C@H](C)CO)C(=O)c2cc(NC(=O)Nc3ccccc3)ccc2O[C@@H](C)CCCCO[C@H]1CN(C)C(=O)Nc1ccc(C(F)(F)F)cc1
- AC50 [15]: 10.8 µM (active)
- AC50 [16]: > 70 µM (inactive)
- AC50 [17]: 46.2 µM (active)

Compound: C[C@H](CO)N1C[C@H](C)[C@H](CN(C)S(=O)(=O)c2ccc(F)cc2)OCCCC[C@H](C)Oc2ccc(NC(=O)Nc3ccc(F)cc3)cc2C1=O
- AC50 [15]: 7.09 µM (active)
- AC50 [16]: > 70 µM (inactive)

Compound: C[C@@H]1CN([C@H](C)CO)C(=O)c2cc(NC(=O)Nc3ccccc3)ccc2O[C@@H](C)CCCCO[C@@H]1CN(C)CC1CCCCC1
- AC50 [15]: 5.42 µM (active)
- AC50 [16]: 53.5 µM (active)
- AC50 [17]: 34.3 µM (active)

Compound: CCOC(=O)CCCc1ccc(/C(C)=N/NC(N)=S)cc1
- CC50 [2]: > 40 µM (active)

Compound: COc1cccc(C#Cc2ccc([C@@H]3[C@@H](C#N)N(C(=O)c4ccccn4)[C@H]3CO)cc2)c1
- AC50 [18]: 3.29 µM (active)

Compound: C[C@@H]1CN([C@H](C)CO)C(=O)c2c(c3ccccc3n2C)-c2ccccc2CO[C@H]1CN(C)S(=O)(=O)c1ccsc1
- AC50 [18]: 4.22 µM (active)

Compound: COc1ccc(C#Cc2ccc3c(c2)[C@@H]2[C@@H](CCN2C(=O)C2CCCC2)[C@H](CO)N3)cc1
- AC50 [18]: 3.97 µM (active)

Compound: CCN1CCN(c2ncnc3ccc(Br)cc23)CC1
- EC50 [5]: > 350 µM (not active)
- EC50 [6]: > 350 µM (not active)
